# Like-named read-outs stand apart in the source and are kept apart here.
# Key:
# MHV-nLuc = assay: microbe, parasite or virus in culture; type: cell-based, mouse hepatitis virus (MHV); settings: Murine coronavirus, read-out: MHV-nLuc replication IC50
# SARS-CoV-2-nLuc = type: cell-based
# SHC014-CoV-nLuc = type: cell-based, bat
# WIV1-CoV-nLuc = type: cell-based, bat
# [1] = tested on: SARS-CoV-2 spike protein uptake, HEK293T-ACE2 cells; type: cell-based
# [2] = tested on: SARS-CoV-2 spike protein uptake, Caco-2 cells; type: cell-based
# [3] = tested on: SARS-CoV-2 spike protein uptake, Calu-3 cells; type: cell-based
# kinases = settings: cited from earlier work
# SARS-CoV-2 [4] = settings: cited from earlier work
# SARS-CoV-2 [5] = settings: cited from earlier work; remark: listed apart in the source
# Vero cells = settings: cited from earlier work
# A549-ACE2 cells = settings: cited from earlier work
smiles,measurement,setting,value
CC(=O)Nc1ccc2ccn(-c3cc(NC4CCC4)n4ncc(C#N)c4n3)c2c1 [Compound 17],IC50,MHV-nLuc,< 1000 nM
CCC(=O)Nc1cc(Nc2cc(NC3CC3)n3ncc(C#N)c3n2)ccc1C [SGC-CK2-1],IC50,MHV-nLuc,210 nM
same,inhibition of SARS-CoV-2-nLuc replication,SARS-CoV-2-nLuc,inhibition of viral replication was observed
same,effect on SHC014-CoV replication,SHC014-CoV-nLuc,dose-dependent decreases in viral replication
same,effect on WIV1-CoV replication,WIV1-CoV-nLuc,dose-dependent decreases in viral replication
same,decrease in spike protein uptake,[1],70–80%
same,decrease in spike protein uptake,[2],> 75%
same,decrease in spike protein uptake,[3],> 75%
same,kinases inhibited at 1 μM,kinases,3 kinases
O=C(O)c1ccc2c(c1)nc(Nc1cccc(Cl)c1)c1ccncc12 [silmitasertib],IC50,MHV-nLuc,630 nM
same,effect on cell viability of DBT cells,DBT cells,no effect on cell viability
same,"antiviral activity pIC50, SARS-CoV-2 in Vero cells",SARS-CoV-2 [4],5.6
same,IC50,"SARS-CoV-2 [4]; read-out: antiviral activity IC50, SARS-CoV-2 in Vero cells",2500 nM
same,"inhibition of SARS-CoV-2 infection pIC50, A549-ACE2 cells",SARS-CoV-2 [5],< 5
same,IC50,"SARS-CoV-2 [5]; read-out: inhibition of SARS-CoV-2 infection IC50, A549-ACE2 cells",> 10000 nM
same,cell toxicity,Vero cells,cell toxicity at micromolar doses
same,cell toxicity,A549-ACE2 cells,cell toxicity at micromolar doses
